Tests used:
[1] = test system: human; details: cited from earlier work
[2] = test system: rats; details: rat, in vivo; cited from earlier work
[3] = test system: male Sprague-Dawley rats; assay: animal or person; format: in vivo, rat; details: sc

Oc1ccc2c(c1)[C@@]13CCCC[C@@]1(O)[C@@H](C2)N(CC1CCC1)CC3 [butorphanol]
effective human dose [1]: 2 mg

Oc1ccc2c3c1O[C@H]1c4[nH]c5c(c4C[C@@]4(O)[C@@H](C2)N(CC2CC2)CC[C@]314)C[C@@]1(O)[C@H]2Cc3ccc(O)c4c3[C@@]1(CCN2CC1CC1)[C@H]5O4 [n-BNI, nor-binaltorphimine]
M.P.E. (maximal percent effect, antinociception) [2]: 1.0%

CN1CC[C@]23c4c5ccc(O)c4O[C@H]2C(=O)CC[C@@]3(O)[C@H]1C5 [oxymorphone]
ED50 ([3]; Rattus norvegicus, read-out: ED50 (M.P.E.=50%)): 0.078 mg/kg
peak effect, time post injection ([3]; rat, in vivo): 30 min

COC(=O)/C=C/C(=O)N[C@@H]1CC[C@@]2(O)[C@H]3Cc4ccc(O)c5c4[C@@]2(CCN3CC2CC2)[C@H]1O5 [β-FNA, beta-funaltrexamine]
M.P.E. (maximal percent effect, antinociception) [2]: 1.0%
